Source: patent publication US5760063A, “Arylhydrazone derivatives useful as antibacterial agents” (Scriptgen Pharmaceuticals, Inc., priority 1996, dated 1998)
pIC50: −log10 of the molar value. Converted amounts (≈) assume the structure as drawn.

Tested on: Enterobacter cloacae
Test: MIC assay, Enterobacter cloacae (CL)
Type: cell-based
Conditions: OD 595 nm after 18 hours
Protocol: (§1) Compounds were prepared to a concentration of 10 mM in 100% DMSO. These were then diluted to 200 μM with 50 mM tris. A 2% DMSO solution was prepared in 50 mM tris as well as a 20 μM solution of rifampicin in 2% DMSO with 50 mM tris. With each compound and control, one to one dilutions were made in a serial dilution fashion across microtiter plates with 50 mM tris. The highest concentration was 200 μM for each compound and 20 μM for rifampicin. The lowest concentrations were 1.562 μM and 0.156 μM for the compounds and rifampicin respectively.
(§2) S. aureus, E. coli, Psuedomonas aeruginosa, Enterobacter cloacae, and Enterococcus faecium cells had been grown up in a shake culture overnight at 37° C. in LB medium. These were diluted 500 fold and added to the compounds at an equal volume. The highest compound concentration was now 100 μM, and 10 μM for rifampicin. Baseline O.D. readings were taken at 595 nm utilizing a Bio-Rad 3550-UV plate reader. A second reading was taken after 18 hours.

`CC(=O)N(N=C(C#N)C(=O)c1ccc(Cl)cc1)c1ccc(Cl)cc1` [Example 14] and `N#CC(=NNc1ccc(Cl)cc1)C(=O)c1ccc(Cl)cc1` [Example 19] fall in the same range of MIC: 0.5 to 10 µM (≈ 0.18 to 3.6 µg/mL) for the first, 0.5 to 10 µM (≈ 0.159 to 3.18 µg/mL) for the second.

First: Cc1c(C(=O)C(C#N)=NNc2ccc([N+](=O)[O-])cc2)sc2ccc(Cl)cc12 [Example 15]
Second: Cc1c(C(=O)C(C#N)=NNc2ccc(C(C)C)cc2)sc2ccc(Cl)cc12 [Example 16]
The MIC of the first is lower: under 0.5 µM for the first, 0.5 to 10 µM (≈ 0.198 to 3.96 µg/mL) for the second.

First: N#CC(=NNc1ccc([N+](=O)[O-])cc1)C(=O)c1ccc(Cl)cc1 [Example 17, 2-(4-nitrophenyl)hydrazono-3-oxo-3-(4-chlorophenyl)propionitrile]
Second: N#CC(=NNc1ccc([N+](=O)[O-])cc1)C(=O)c1cccc(Cl)c1 [Example 22]
The MIC of the first is lower: under 0.5 µM for the first, over 10 µM for the second.

`N#CC(=NNc1ccc(OC(F)(F)F)cc1)C(=O)c1ccc(Cl)cc1` [Example 18] and `N#CC(=NNc1ccc(F)cc1)C(=O)c1ccc(OC(F)(F)F)cc1` [Example 21] fall in the same range of MIC: 0.5 to 10 µM (≈ 0.184 to 3.68 µg/mL) for the first, 0.5 to 10 µM (≈ 0.176 to 3.51 µg/mL) for the second.

`N#CC(=NNc1cc(C(F)(F)F)cc(C(F)(F)F)c1)C(=O)c1ccccc1` [Example 20] and `N#CC(=NNc1ccc([N+](=O)[O-])cc1)C(=O)c1ccccc1` [Example 23] fall in the same range of MIC: 0.5 to 10 µM (≈ 0.193 to 3.85 µg/mL) for the first, 0.5 to 10 µM (≈ 0.147 to 2.94 µg/mL) for the second.

Tested on: Psuedomonas aeruginosa
Test: MIC assay, Psuedomonas aeruginosa (PS)
Type: cell-based
Conditions: OD 595 nm after 18 hours
Protocol: as §1, §2

`CC(=O)N(N=C(C#N)C(=O)c1ccc(Cl)cc1)c1ccc(Cl)cc1` [Example 14] and `N#CC(=NNc1ccc(Cl)cc1)C(=O)c1ccc(Cl)cc1` [Example 19] cannot be ordered by MIC: over 10 µM for the first, over 10 µM for the second.

`Cc1c(C(=O)C(C#N)=NNc2ccc([N+](=O)[O-])cc2)sc2ccc(Cl)cc12` [Example 15] and `Cc1c(C(=O)C(C#N)=NNc2ccc(C(C)C)cc2)sc2ccc(Cl)cc12` [Example 16] cannot be ordered by MIC: over 10 µM for the first, over 10 µM for the second.

`N#CC(=NNc1ccc([N+](=O)[O-])cc1)C(=O)c1ccc(Cl)cc1` [Example 17, 2-(4-nitrophenyl)hydrazono-3-oxo-3-(4-chlorophenyl)propionitrile] and `N#CC(=NNc1ccc([N+](=O)[O-])cc1)C(=O)c1cccc(Cl)c1` [Example 22] cannot be ordered by MIC: over 10 µM for the first, over 10 µM for the second.

`N#CC(=NNc1ccc(OC(F)(F)F)cc1)C(=O)c1ccc(Cl)cc1` [Example 18] and `N#CC(=NNc1ccc(F)cc1)C(=O)c1ccc(OC(F)(F)F)cc1` [Example 21] cannot be ordered by MIC: over 10 µM for the first, over 10 µM for the second.

`N#CC(=NNc1cc(C(F)(F)F)cc(C(F)(F)F)c1)C(=O)c1ccccc1` [Example 20] and `N#CC(=NNc1ccc([N+](=O)[O-])cc1)C(=O)c1ccccc1` [Example 23] cannot be ordered by MIC: over 10 µM for the first, over 10 µM for the second.

Tested on: S. aureus
Test: MIC assay, S. aureus
Type: cell-based
Conditions: Staphylococcus aureus, 18 h, read-out: S. Aur. MIC
Protocol: as §1, §2

`CC(=O)N(N=C(C#N)C(=O)c1ccc(Cl)cc1)c1ccc(Cl)cc1` [Example 14] and `N#CC(=NNc1ccc(Cl)cc1)C(=O)c1ccc(Cl)cc1` [Example 19] cannot be ordered by MIC: over 10 µM for the first, over 10 µM for the second.

`Cc1c(C(=O)C(C#N)=NNc2ccc([N+](=O)[O-])cc2)sc2ccc(Cl)cc12` [Example 15] and `Cc1c(C(=O)C(C#N)=NNc2ccc(C(C)C)cc2)sc2ccc(Cl)cc12` [Example 16] cannot be ordered by MIC: over 10 µM for the first, over 10 µM for the second.

`N#CC(=NNc1ccc([N+](=O)[O-])cc1)C(=O)c1ccc(Cl)cc1` [Example 17, 2-(4-nitrophenyl)hydrazono-3-oxo-3-(4-chlorophenyl)propionitrile] and `N#CC(=NNc1ccc([N+](=O)[O-])cc1)C(=O)c1ccccc1` [Example 23] fall in the same range of MIC: 0.5 to 10 µM (≈ 0.164 to 3.29 µg/mL) for the first, 0.5 to 10 µM (≈ 0.147 to 2.94 µg/mL) for the second.

`N#CC(=NNc1ccc(OC(F)(F)F)cc1)C(=O)c1ccc(Cl)cc1` [Example 18] and `N#CC(=NNc1ccc(F)cc1)C(=O)c1ccc(OC(F)(F)F)cc1` [Example 21] fall in the same range of MIC: 0.5 to 10 µM (≈ 0.184 to 3.68 µg/mL) for the first, 0.5 to 10 µM (≈ 0.176 to 3.51 µg/mL) for the second.

With `N#CC(=NNc1cc(C(F)(F)F)cc(C(F)(F)F)c1)C(=O)c1ccccc1` [Example 20] the MIC was 0.5 to 10 µM (≈ 0.193 to 3.85 µg/mL).

Target: E. coli RNAP (Escherichia coli, UniProt P0A8T7+P0A8V2)
Test: High throughput in vitro transcription (RNAP) assay
Type: biochemical
Conditions: 60 minutes incubation
Protocol: (I) High Throughput in vitro Transcription (RNAP) Assay
The reagents are added to the DMSO/compound with a Tomtec Quadra. The Quadra acts as 96-tip pipetman, combined with a movable base. The reagents and compounds are stored and used in 96-well polypropylene u-bottom microtiter plates.
The Quadra is run in backfill mode (filled with water). A total of […] of reagents must be added. This is divided into a 20 ml RNAP/Txn Buffer mix and a 25 ml DNA/NTP/water mix. The RNAP mix is added first to allow the drug a chance to interact with RNAP before RNAP interacts with DNA (this interaction lasts less than 5 seconds). The mixing of the reagents is done with a multivortexer after all reagents have been added (setting 5.5 for 90 seconds).
After incubation for 60 minutes, the reaction is stopped with 150 ml 10% TCA, which also precipitates the RNA. The RNA is allowed to sit a room temperature for approximately 15-45 minutes (until all plates have been stopped and the cell harvester has been set up).
The TCA precipitated RNA is transferred to double-thick glass filtermats using a Tomtec cell harvester. The wells of the microtiter plate are washed with 5% TCA and sucked through the same filtermat. Two additional washes with 5 % TCA solution are sufficient to reduce background counts.
The filters are then dried at 60° for 60 minutes. It is important to remove all of the liquid, or this may quench the scintillation fluid when it is added.
The dry filters are sealed into plastic bags with a heat-sealer. A hole is cut in one corner and 12 ml of "β-plate scintillant" is added to each bag.
When choosing a scintillation counting program on the Wallac Microb 1450, it is important to choose one which counts using the appropriate window for P^32. Each well is counted for 3 seconds. The data obtained is used to calculate an lC50 value.

Chain of E. coli RNAP (P0A8V2 whole entry): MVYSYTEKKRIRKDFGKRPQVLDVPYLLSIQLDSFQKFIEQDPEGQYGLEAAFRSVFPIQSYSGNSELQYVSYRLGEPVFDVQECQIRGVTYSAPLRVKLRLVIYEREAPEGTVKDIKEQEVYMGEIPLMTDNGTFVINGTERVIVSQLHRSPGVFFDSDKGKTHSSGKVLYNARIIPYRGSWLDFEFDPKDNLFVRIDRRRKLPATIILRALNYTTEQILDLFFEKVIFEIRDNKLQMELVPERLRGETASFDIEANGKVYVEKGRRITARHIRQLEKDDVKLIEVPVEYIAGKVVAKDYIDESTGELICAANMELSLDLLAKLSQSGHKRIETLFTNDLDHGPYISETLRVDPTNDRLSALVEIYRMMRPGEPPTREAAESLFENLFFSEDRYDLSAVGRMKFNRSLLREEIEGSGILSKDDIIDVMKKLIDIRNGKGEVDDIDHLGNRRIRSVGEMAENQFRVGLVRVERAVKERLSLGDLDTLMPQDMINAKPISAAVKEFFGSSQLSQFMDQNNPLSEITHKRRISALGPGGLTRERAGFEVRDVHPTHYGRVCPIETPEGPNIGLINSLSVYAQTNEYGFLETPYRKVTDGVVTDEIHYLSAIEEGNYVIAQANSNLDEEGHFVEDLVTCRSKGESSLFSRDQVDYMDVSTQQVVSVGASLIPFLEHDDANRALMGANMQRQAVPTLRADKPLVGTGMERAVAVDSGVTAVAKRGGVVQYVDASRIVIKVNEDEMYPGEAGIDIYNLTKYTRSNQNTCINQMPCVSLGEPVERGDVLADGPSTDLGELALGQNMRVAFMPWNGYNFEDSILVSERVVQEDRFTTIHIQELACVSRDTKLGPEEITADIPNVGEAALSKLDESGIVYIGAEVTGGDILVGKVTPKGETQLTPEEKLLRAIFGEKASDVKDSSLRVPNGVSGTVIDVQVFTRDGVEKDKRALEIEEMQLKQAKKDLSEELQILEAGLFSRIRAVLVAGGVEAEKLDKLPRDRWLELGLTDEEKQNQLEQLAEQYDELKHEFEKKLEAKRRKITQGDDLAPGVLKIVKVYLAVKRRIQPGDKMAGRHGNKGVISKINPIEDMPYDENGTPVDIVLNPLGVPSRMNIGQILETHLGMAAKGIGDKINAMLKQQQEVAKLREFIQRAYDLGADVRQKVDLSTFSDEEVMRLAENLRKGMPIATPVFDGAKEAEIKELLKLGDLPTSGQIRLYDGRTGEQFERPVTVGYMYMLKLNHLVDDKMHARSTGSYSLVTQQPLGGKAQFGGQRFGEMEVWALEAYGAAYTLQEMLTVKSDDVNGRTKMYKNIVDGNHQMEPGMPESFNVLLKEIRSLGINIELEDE
Chain of E. coli RNAP (P0A8T7 whole entry): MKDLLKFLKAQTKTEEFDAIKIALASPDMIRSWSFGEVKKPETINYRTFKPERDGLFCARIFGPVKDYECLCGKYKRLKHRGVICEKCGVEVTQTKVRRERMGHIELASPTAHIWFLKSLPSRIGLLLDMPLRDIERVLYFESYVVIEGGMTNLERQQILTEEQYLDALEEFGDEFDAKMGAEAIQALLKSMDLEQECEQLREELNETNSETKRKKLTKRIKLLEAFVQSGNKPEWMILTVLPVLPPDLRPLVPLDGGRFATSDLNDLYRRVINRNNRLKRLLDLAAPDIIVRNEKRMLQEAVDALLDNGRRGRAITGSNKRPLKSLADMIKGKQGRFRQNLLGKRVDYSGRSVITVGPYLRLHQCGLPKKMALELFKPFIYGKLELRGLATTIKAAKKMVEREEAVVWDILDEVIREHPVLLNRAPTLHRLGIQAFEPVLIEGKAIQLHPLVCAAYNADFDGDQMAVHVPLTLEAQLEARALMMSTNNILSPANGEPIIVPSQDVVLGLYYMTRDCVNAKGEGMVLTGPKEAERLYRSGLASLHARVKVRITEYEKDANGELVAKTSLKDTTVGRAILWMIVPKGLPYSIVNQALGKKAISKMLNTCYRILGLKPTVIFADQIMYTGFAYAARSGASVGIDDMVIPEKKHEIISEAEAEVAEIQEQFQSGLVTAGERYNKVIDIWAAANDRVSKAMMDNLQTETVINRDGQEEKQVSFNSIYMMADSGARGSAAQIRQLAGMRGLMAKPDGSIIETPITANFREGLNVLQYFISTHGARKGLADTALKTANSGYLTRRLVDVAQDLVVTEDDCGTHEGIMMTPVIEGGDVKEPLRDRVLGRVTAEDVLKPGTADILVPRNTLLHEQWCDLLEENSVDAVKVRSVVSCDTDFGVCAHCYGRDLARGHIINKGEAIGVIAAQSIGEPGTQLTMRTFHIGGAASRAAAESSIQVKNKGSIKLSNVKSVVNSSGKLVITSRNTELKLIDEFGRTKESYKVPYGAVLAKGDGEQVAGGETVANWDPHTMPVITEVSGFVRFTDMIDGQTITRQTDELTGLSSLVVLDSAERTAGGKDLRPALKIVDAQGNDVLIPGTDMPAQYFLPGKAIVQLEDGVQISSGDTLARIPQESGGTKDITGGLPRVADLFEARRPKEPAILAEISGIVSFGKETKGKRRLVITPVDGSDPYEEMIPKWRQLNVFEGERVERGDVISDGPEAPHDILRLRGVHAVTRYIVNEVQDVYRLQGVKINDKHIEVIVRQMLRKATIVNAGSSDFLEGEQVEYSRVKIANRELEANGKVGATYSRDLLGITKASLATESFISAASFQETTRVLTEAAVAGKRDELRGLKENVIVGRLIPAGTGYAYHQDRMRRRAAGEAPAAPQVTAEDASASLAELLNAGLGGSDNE
Chain of E. coli RNAP (P0A7Z4 whole entry partner): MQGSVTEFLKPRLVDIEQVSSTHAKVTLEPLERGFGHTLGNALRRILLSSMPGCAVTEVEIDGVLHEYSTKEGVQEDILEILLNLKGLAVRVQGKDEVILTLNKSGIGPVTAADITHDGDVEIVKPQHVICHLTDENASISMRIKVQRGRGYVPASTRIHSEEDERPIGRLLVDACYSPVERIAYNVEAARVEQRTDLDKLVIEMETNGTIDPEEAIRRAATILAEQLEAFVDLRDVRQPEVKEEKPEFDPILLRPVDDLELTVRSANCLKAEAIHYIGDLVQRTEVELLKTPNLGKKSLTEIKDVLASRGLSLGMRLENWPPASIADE

First: N#CC(=NNc1ccc([N+](=O)[O-])cc1)C(=O)c1ccc(Cl)nc1 [Example 8]
Second: N#CC(=NNc1ccc([N+](=O)[O-])cc1)C(=O)c1ccc(Cl)cc1 [Example 17, 2-(4-nitrophenyl)hydrazono-3-oxo-3-(4-chlorophenyl)propionitrile]
The pIC50 of the first is lower: 5.00 to 6.30 for the first, over 6.30 for the second. The second is the more potent here.

Compared with `CC(=O)N(N=C(C#N)C(=O)c1ccc(Cl)cc1)c1ccc(Cl)cc1` [Example 14], `N#CC(=NNc1ccc(Cl)cc1)C(=O)c1ccc(Cl)cc1` [Example 19] is higher in pIC50: under 5.00 for the first, 5.00 to 6.30 for the second. The second is the more potent here.

First: Cc1c(C(=O)C(C#N)=NNc2ccc([N+](=O)[O-])cc2)sc2ccc(Cl)cc12 [Example 15]
Second: Cc1c(C(=O)C(C#N)=NNc2ccc(C(C)C)cc2)sc2ccc(Cl)cc12 [Example 16]
The pIC50 of the first is higher: over 6.30 for the first, 5.00 to 6.30 for the second. The first is the more potent here.

`N#CC(=NNc1ccc(OC(F)(F)F)cc1)C(=O)c1ccc(Cl)cc1` [Example 18] and `N#CC(=NNc1ccc(F)cc1)C(=O)c1ccc(OC(F)(F)F)cc1` [Example 21] fall in the same range of pIC50: 5.00 to 6.30 for the first, 5.00 to 6.30 for the second.

Compared with `N#CC(=NNc1cc(C(F)(F)F)cc(C(F)(F)F)c1)C(=O)c1ccccc1` [Example 20], `N#CC(=NNc1ccc([N+](=O)[O-])cc1)C(=O)c1ccccc1` [Example 23] is lower in pIC50: 5.00 to 6.30 for the first, under 5.00 for the second.

Compound `N#CC(=NNc1ccc([N+](=O)[O-])cc1)C(=O)c1cccc(Cl)c1` [Example 22] has a pIC50 of under 5.00.

Tested on: Enterococcus faecium
Test: MIC assay, Enterococcus faecium (FAE)
Type: cell-based
Conditions: OD 595 nm after 18 hours
Protocol: as §1, §2

`CC(=O)N(N=C(C#N)C(=O)c1ccc(Cl)cc1)c1ccc(Cl)cc1` [Example 14] and `N#CC(=NNc1ccc(Cl)cc1)C(=O)c1ccc(Cl)cc1` [Example 19] cannot be ordered by MIC: over 10 µM for the first, over 10 µM for the second.

First: Cc1c(C(=O)C(C#N)=NNc2ccc([N+](=O)[O-])cc2)sc2ccc(Cl)cc12 [Example 15]
Second: Cc1c(C(=O)C(C#N)=NNc2ccc(C(C)C)cc2)sc2ccc(Cl)cc12 [Example 16]
The MIC of the first is lower: 0.5 to 10 µM (≈ 0.199 to 3.99 µg/mL) for the first, over 10 µM for the second.

Going from `N#CC(=NNc1ccc([N+](=O)[O-])cc1)C(=O)c1ccc(Cl)cc1` [Example 17, 2-(4-nitrophenyl)hydrazono-3-oxo-3-(4-chlorophenyl)propionitrile] to `N#CC(=NNc1ccc([N+](=O)[O-])cc1)C(=O)c1cccc(Cl)c1` [Example 22], the MIC rises from under 0.5 µM to over 10 µM.

Compared with `N#CC(=NNc1ccc(OC(F)(F)F)cc1)C(=O)c1ccc(Cl)cc1` [Example 18], `N#CC(=NNc1ccc(F)cc1)C(=O)c1ccc(OC(F)(F)F)cc1` [Example 21] is higher in MIC: 0.5 to 10 µM (≈ 0.184 to 3.68 µg/mL) for the first, over 10 µM for the second.

`N#CC(=NNc1cc(C(F)(F)F)cc(C(F)(F)F)c1)C(=O)c1ccccc1` [Example 20] and `N#CC(=NNc1ccc([N+](=O)[O-])cc1)C(=O)c1ccccc1` [Example 23] cannot be ordered by MIC: over 10 µM for the first, over 10 µM for the second.
